Converted amounts (≈) assume the structure as drawn. Read-outs that look alike come from different tables or passages of the source.
Key:
[1] = system: Salm.dubl. P 43; experiment: agar serial dilution test; assay type: cell-based, Salmonella dublin; details: Salmonella enterica, read-out: minimal inhibitory concentration (MIC)
[2] = system: Pseud.aerug. Wyeth A 1058; experiment: agar serial dilution test; assay type: cell-based; details: read-out: minimal inhibitory concentration (MIC)
[3] = system: Bac.Subt.ATCC 6633; experiment: agar serial dilution test; assay type: cell-based, Bacillus subtilis; details: Bacillus subtilis, read-out: minimal inhibitory concentration (MIC)
[4] = system: Salm.typh. R 127; experiment: agar serial dilution test; assay type: cell-based; details: 24 h, 37° C., read-out: minimal inhibitory concentration (MIC)
[5] = system: Prot.mirab. L 93; experiment: agar serial dilution test; assay type: cell-based, Proteus mirabilis; details: Proteus mirabilis
[6] = system: Staph.aureus A 2001; experiment: agar serial dilution test; assay type: cell-based, Staphylococcus aureus; details: Staphylococcus aureus, A2001, 24 h, agar serial dilution, 24 hours, 37° C.; read-out: minimal inhibitory concentration (MIC)
[7] = system: Prot.mirab. H 3; experiment: agar serial dilution test; assay type: cell-based, Proteus mirabilis; details: Proteus mirabilis
[8] = system: Esch.coli U 20; experiment: agar serial dilution test; assay type: cell-based, Escherichia coli; details: Escherichia coli
[9] = system: Staph.aureus A 2001; experiment: micro serial dilution test; assay type: cell-based, Staphylococcus aureus; details: Staphylococcus aureus, micro serial dilution (in brackets), about 18 hours, 30° C. or 37° C., read-out: minimal inhibitory concentration (MIC)
[10] = system: Kleb.pneum. A 809; experiment: agar serial dilution test; assay type: cell-based, Klebsiella pneumoniae; details: Klebsiella pneumoniae, read-out: minimal inhibitory concentration (MIC)
[11] = system: Staph.aureus A 2000; experiment: agar serial dilution test; assay type: cell-based, Staphylococcus aureus; details: Staphylococcus aureus, read-out: minimal inhibitory concentration (MIC)
[12] = system: Staph.aureus A 2000; experiment: micro serial dilution test; assay type: cell-based, Staphylococcus aureus; details: Staphylococcus aureus, A2000, 18 h, micro serial dilution (in brackets), about 18 hours, 30° C. or 37° C.; read-out: minimal inhibitory concentration (MIC)
[13] = system: Strep. faec. L 80; experiment: agar serial dilution test; assay type: cell-based, Streptococcus faecalis; details: Enterococcus faecalis, read-out: minimal inhibitory concentration (MIC)
[14] = system: Prot.mirab. A 1200; experiment: agar serial dilution test; assay type: cell-based, Proteus mirabilis; details: Proteus mirabilis, 24 h, agar serial dilution, 24 hours, 37° C.; read-out: minimal inhibitory concentration (MIC)
[15] = system: Shig.equir. T 3; experiment: agar serial dilution test; assay type: cell-based; details: 37° C., read-out: minimal inhibitory concentration (MIC)
[16] = system: Haem.infl. A 1030; experiment: micro serial dilution test; assay type: cell-based; details: read-out: minimal inhibitory concentration (MIC)
[17] = system: Staph.aureus A 321; experiment: agar serial dilution test; assay type: cell-based, Staphylococcus aureus; details: Staphylococcus aureus, read-out: minimal inhibitory concentration (MIC)
[18] = system: Prot.morg. 2241; experiment: agar serial dilution test; assay type: cell-based; details: read-out: minimal inhibitory concentration (MIC)
[19] = system: Pseud.aerug. 2396; experiment: agar serial dilution test; assay type: cell-based; details: read-out: minimal inhibitory concentration (MIC)
[20] = system: Prot.rettg. A 821; experiment: agar serial dilution test; assay type: cell-based, Proteus rettgeri; details: Providencia rettgeri, read-out: minimal inhibitory concentration (MIC)
[21] = system: Staph.aureus A 355; experiment: agar serial dilution test; details: Staphylococcus aureus, A355, 24 h
[22] = system: Dipl.pneum. L 54; experiment: agar serial dilution test; assay type: cell-based, Diplococcus pneumoniae; details: Streptococcus pneumoniae, read-out: minimal inhibitory concentration (MIC)
[23] = system: Pseud.aerug. H 10; experiment: agar serial dilution test; assay type: cell-based; details: read-out: minimal inhibitory concentration (MIC)
[24] = system: Bruc.melit. A 488; experiment: microbe, parasite or virus in culture; assay type: cell-based; details: Brucella melitensis, 24 h, read-out: minimal inhibitory concentration (MIC)
[25] = system: Past.multo. A 723; experiment: agar serial dilution test; assay type: cell-based, Pasteurella multocida; details: Pasteurella multocida, read-out: minimal inhibitory concentration (MIC)
[26] = system: Staph.aureus A 355; experiment: micro serial dilution test; assay type: cell-based, Staphylococcus aureus; details: Staphylococcus aureus, A355; micro serial dilution (in brackets), about 18 hours, 30° C. or 37° C.; penicillinase-producing strain; read-out: minimal inhibitory concentration (MIC)
Text: Two drops of a stock solution of the test compound (antibiotic) in a known concentration were brought into the first hole of a test plate with 9 numbered holes with a sterile Pasteur pipette. After rinsing this pipette three times with a physiological NaCl-solution, two drops of a stock solution of the test organism in a culture medium were brought in all the holes except for hole 8. In the first hole, the solution of the tested compound had been half diluted, then by stirring the liquid in the first hole and adding two drops of this mixture to the second hole and so on until hole 8, dilutions of the test compound solution were obtained in geometrical progression. The hole 9 contained no antibiotic and served for checking the growth of the testogranism in a blank medium. The test plate was incubated at 30° C. or 37° C. for about 18 hours.
^1 Penicillinase-producing strain

[27] = system: Strep.haem. A 266; experiment: agar serial dilution test; assay type: cell-based, Streptococcus haemolyticus; details: Streptococcus, read-out: minimal inhibitory concentration (MIC)
[28] = agar serial dilution, 24 hours, 37° C.
[29] = ATCC6633, 24 h, agar serial dilution, 24 hours, 37° C.
[30] = 24 h, read-out: minimal inhibitory concentration (MIC), agar serial dilution, 24 hours, 37° C.
[31] = agar serial dilution, 24 hours, 37° C., read-out: minimal inhibitory concentration (MIC)
[32] = U20, agar serial dilution, 24 hours, 37° C., read-out: minimal inhibitory concentration (MIC)
[33] = A2000, 24 h, agar serial dilution, 24 hours, 37° C.
[34] = 18 h, micro serial dilution (in brackets), about 18 hours, 30° C. or 37° C.
[35] = A321, 24 h, agar serial dilution, 24 hours, 37° C.
[36] = 24 h, agar serial dilution, 24 hours, 37° C.
[37] = read-out: minimal inhibitory concentration (MIC), agar serial dilution, 24 hours, 37° C., penicillinase-producing strain
[38] = 24 h, agar serial dilution, 24 hours, 37° C., read-out: minimal inhibitory concentration (MIC)
[39] = read-out: minimal inhibitory concentration (MIC)

| SMILES | MIC [1, 28] | MIC [2, 28] | MIC [3, 29] | MIC [7, 31] | MIC [8, 32] | MIC [10, 28] | MIC [11, 33] | MIC [13, 28] | MIC [14] | MIC ([15]; 24 h) | MIC [16, 34] | MIC [17, 35] | MIC [18, 36] | MIC [19, 28] | MIC [20, 36] | MIC [21, 37] | MIC [22, 28] | MIC [23, 28] | MIC [24] | MIC [25, 28] | also measured |
| --- | --- | --- | --- | --- | --- | --- | --- | --- | --- | --- | --- | --- | --- | --- | --- | --- | --- | --- | --- | --- | --- |
| Cc1noc(C(C(=O)N[C@@H]2C(=O)N3[C@@H]2SC(C)(C)[C@@H]3C(=O)O)c2ccccc2)n1 (mixture of isomers) [Example 6, sodium DL-6-{[α-phenyl-3-methyl-1,2,4-oxadiazol-5-yl-]-acetamido}-penicillanate] | 100 µg/mL | > 100 µg/mL | 0.03 µg/mL | 100 µg/mL | 100 µg/mL | 100 µg/mL | 1.5 µg/mL | 1 µg/mL | 100 µg/mL | 12.5 µg/mL | 1.2 µg/mL | 0.25 µg/mL | > 100 µg/mL | > 100 µg/mL | 3 µg/mL | 25 µg/mL | 0.06 µg/mL | > 100 µg/mL | 1 µg/mL | 1 µg/mL | MIC [4]: > 100 µg/mL; MIC [5, 30]: 12.5 µg/mL; MIC [6]: 1 µg/mL; MIC ([9]; A2001, 18 h): 2.5 µg/mL; MIC [12]: 23 µg/mL; MIC [26]: 125 µg/mL |
| CC(=O)OCC1=C(C(=O)O)N2C(=O)[C@@H](NC(=O)Cc3ccccc3)[C@H]2SC1 [Cephalosporin G, reference compound] | 6 µg/mL (≈ 15.4 µM) | > 100 µg/mL |  |  |  | 1 µg/mL (≈ 2.56 µM) |  | 25 µg/mL (≈ 64 µM) |  | 25 µg/mL (≈ 64 µM) |  |  |  | > 100 µg/mL |  |  | 0.06 µg/mL (≈ 0.154 µM) | > 100 µg/mL | 2 µg/mL (≈ 5.12 µM) | 1 µg/mL (≈ 2.56 µM) | MIC ([3]; ATCC6633, agar serial dilution, 24 hours, 37° C.): 0.09 µg/mL (≈ 0.231 µM); MIC [27, 28]: 0.03 µg/mL (≈ 0.0768 µM); MIC [5, 38]: 2 µg/mL (≈ 5.12 µM); MIC [7, 38]: 25 µg/mL (≈ 64 µM); MIC ([8]; U20, 24 h, agar serial dilution, 24 hours, 37° C., read-out: minimal inhibitory concentration (MIC)): 50 µg/mL (≈ 128 µM); MIC ([9]; A2001): 0.9 µg/mL (≈ 2.31 µM); MIC ([11]; A2000, agar serial dilution, 24 hours, 37° C.): 1.5 µg/mL (≈ 3.84 µM); MIC ([16]; micro serial dilution (in brackets), about 18 hours, 30° C. or 37° C.): 125 µg/mL (≈ 320 µM); MIC ([17]; A321, agar serial dilution, 24 hours, 37° C.): 1.5 µg/mL (≈ 3.84 µM); MIC [18, 28]: > 100 µg/mL; MIC [20, 28]: 25 µg/mL (≈ 64 µM); MIC [21, 39]: 1.5 µg/mL (≈ 3.84 µM); MIC [26]: 1.8 µg/mL (≈ 4.61 µM) |
| CC(=O)OCC1=C(C(=O)O)N2C(=O)[C@@H](NC(=O)Cc3nc(-c4c(C)cc(C)cc4C)no3)[C@H]2SC1 [Example 9, 7-{[3-(2,4,6-trimethylphenyl)-1,2,4-oxadiazol-5-yl]-acetamido}-cephalosporanic acid] | > 100 µg/mL | > 100 µg/mL | 0.06 µg/mL (≈ 0.12 µM) | > 100 µg/mL | > 100 µg/mL | 50 µg/mL (≈ 99.9 µM) | 1 µg/mL (≈ 2 µM) | 6 µg/mL (≈ 12 µM) | > 100 µg/mL | > 100 µg/mL | 125 µg/mL (≈ 250 µM) | 0.12 µg/mL (≈ 0.24 µM) | > 100 µg/mL | > 100 µg/mL | > 100 µg/mL | 1 µg/mL (≈ 2 µM) | 0.25 µg/mL (≈ 0.499 µM) | > 100 µg/mL | 100 µg/mL (≈ 200 µM) | 50 µg/mL (≈ 99.9 µM) | MIC [27, 28]: 0.03 µg/mL (≈ 0.0599 µM); MIC [5, 31]: > 100 µg/mL; MIC ([9]; A2001, 18 h): 0.11 µg/mL (≈ 0.22 µM); MIC [26]: 0.15 µg/mL (≈ 0.3 µM) |
| Cc1nc(CC(=O)N[C@@H]2C(=O)N3[C@@H]2SC(C)(C)[C@@H]3C(=O)O)no1 [Example 13, Sodium 6-[(5-methyl-1,2,4-oxadiazol-3-yl)-acetamido]-penicillanate] | 3 µg/mL | > 100 µg/mL | 0.03 µg/mL | 100 µg/mL | 50 µg/mL | > 100 µg/mL | 1.5 µg/mL | 6 µg/mL | 25 µg/mL | 3 µg/mL | 125 µg/mL | 0.12 µg/mL | 100 µg/mL |  | 6 µg/mL | 10 µg/mL | 1 µg/mL | > 100 µg/mL | 3 µg/mL | 1 µg/mL | MIC [27, 28]: 0.03 µg/mL; MIC [4]: 25 µg/mL; MIC [5, 31]: 3 µg/mL; MIC [6]: 1.5 µg/mL |
| CC1=C(C(=O)O)N2C(=O)[C@@H](NC(=O)Cc3ccccc3)[C@H]2SC1 [benzyldesacetoxy ceph., reference compound] |  |  |  |  |  |  |  |  |  |  |  |  |  |  |  |  |  |  | 100 µg/mL (≈ 301 µM) |  | MIC ([1]; 24 h): > 100 µg/mL; MIC ([2]; 24 h): > 100 µg/mL; MIC ([3]; ATCC6633, 24 h): 0.5 µg/mL (≈ 1.5 µM); MIC ([27]; 24 h): 1 µg/mL (≈ 3.01 µM); MIC [5, 30]: 50 µg/mL (≈ 150 µM); MIC [7, 30]: > 100 µg/mL; MIC ([8]; U20, 24 h, read-out: minimal inhibitory concentration (MIC), agar serial dilution, 24 hours, 37° C.): > 100 µg/mL; MIC ([10]; 24 h): 100 µg/mL (≈ 301 µM); MIC ([11]; A2000, 24 h): 12.5 µg/mL (≈ 37.6 µM); MIC ([13]; 24 h): > 100 µg/mL; MIC ([15]; 24 hours): 100 µg/mL (≈ 301 µM); MIC ([16]; 18 h): > 125 µg/mL; MIC ([17]; A321, 24 h): 1 µg/mL (≈ 3.01 µM); MIC ([18]; 24 h): > 100 µg/mL; MIC ([19]; 24 h): > 100 µg/mL; MIC ([20]; 24 h): > 100 µg/mL; MIC [21, 39]: 25 µg/mL (≈ 75.2 µM); MIC ([22]; 24 h): 3 µg/mL (≈ 9.03 µM); MIC ([23]; 24 h): > 100 µg/mL; MIC ([25]; 24 h): 25 µg/mL (≈ 75.2 µM) |

Reference: US4160829A, “Antibacterial 1,2,4-oxadiazolylacetamido cephalosporins” (Gist-Brocades N.V., priority 1972, dated 1979)
